The text below walks through data of patent publication US4419351A, “Platinum-dioxopyrimidine complexes” (priority 1978, dated 1983).

In series [1] the test system is ascites Sarcoma-180 tumor. The experiment in a line: chemotherapeutic activity vs ascites Sarcoma-180 tumor, single i.p. injection on day 1 (Table 2 survey). The series is classed as in vivo, Swiss White mice. The conditions noted are these: for # of cures / Dose of Best % ILS / Toxic Level / Best % ILS (increase in lifespan): carrier saline; for # of cures: 6 animals per test; for Dose of Best % ILS / Toxic Level / Best % ILS (increase in lifespan): single i.p. day 1; for Toxic Level: 2 or more of 6 animals died within 8 days; for Best % ILS (increase in lifespan): max 100%. On the procedure:
The chemotherapeutic activities of the "Platinum Blue" complexes were determined using the ascites Sarcoma-180 tumor in Swiss White mice. The protocols for these tests were as follows: Random bred female Swiss White mice (Spartan Laboratory, Williamston, Mich.) of 18-20 grams weight were randomized in groups of six. The ascites cells were removed from the peritoneal cavities of animals with approximately 10 day old ascites tumors. The cells were washed several times with 0.85% saline and spun down each time in a refrigerated centrifuge for 3-5 minutes at 750 r.p.m. After the blood was removed from the cells, they were diluted with 0.85% saline solution and counted in a hemocytometer. A final dilution of 2×10^7 cells/ml. in saline was made. Each animal received 0.2 ml. of this suspension (4×10^6 cells/animals). This was injected intraperitoneally on day 0 of each test. Two groups (12 animals) were kept as negative controls, and the test was terminated at twice the mean day of death of the negative controls. […] All test compounds were injected i.p. on day one as a 0.5 ml. volume of the compound in a carrier of water, physiologic saline or arachis oil (peanut oil). Soluble compounds were always tested in appropriate solutions, the insoluble ones as a slurry. The slurry was sonicated for periods of up to 10 minutes to insure uniformity of dispersion just prior to injections. […] Retests were performed if a sufficient level of drug toxicity at the highest dose was not reached. Animals still alive at the completion of the tests were considered to have died on the day of evaluation. Animals showing no abdominal distention (by palpation, or visibly) on this day were considered cured.
The compounds tested were usually freshly prepared and purified. The compounds kept for further testing were stored in a vacuum dessicator in a dark refrigerator to prevent deterioration. […] Toxic levels are considered to be that concentration where 2 or more of the 6 animals at the dose died within 8 days of injection.
The letter A indicates the "blue" or first isolated precipitate, the letter B, the "green" or second precipitate.

The subject of the next series is L1210 Tumor. The experiment in a line: effects on L1210 tumor (Table 4). Type of series: in vivo, BDF Mice. The conditions noted are these: for Survivors: at 200% ILS. An excerpt: (§1) Tables 4-7, respectively, tabulate the results achieved when employing the complexes of the invention against the L1210, MCDV 12, (Rauscher Leukemia, virus-induced), Ehrlich Ascites and the ADJ PC6A (myeloma) tumors.
^a All experiments were terminated arbitrarily at 200% ILS and any
survivors were tabulated at that time. All therapy was started on the
third day after tumor transplant. Untreated tumor controls died 10-11 day
after transplant. In some instances efforts to reproduce above results
have shown considerable variability.

The subject of series [2] is MCDV 12 (Rauscher Leukemia, Virus Induced). As to the kind of experiment: effects on MCDV 12 (Rauscher Leukemia, virus induced) (Table 5). The series is classed as in vivo, BALB/C Mice. As to conditions: for Survivors: at 200% ILS.
Description: as §1
^a All experiments were terminated arbitrarily at 200% ILS and
survivors tabulated at that time. All therapy was started on third day
after tumor transplant. Untreated tumor controls died 10-11 days after
transplant. In some instances, efforts to reproduce above results have
shown considerable variability.

The next series relates to ADJ/PC6A Tumor. The experiment in a line: effects on ADJ/PC6A tumor (Table 7). Type of series: in vivo, Female, C^- Mice. The conditions noted are these: i.p., single dose, 24 days after tumor implant.

Take `CC1CNC(=O)NC1=O` (stereo not drawn) [5,6-dihydrothymine Class IA]: in series [1], the “# of cures” value was 2. Moreover, the “Dose of Best % ILS” value in series [1] is recorded as 200 mg/kg. In series [1], the “Toxic Level” value was found to be 400 mg/kg. Besides, in series [1], the “Best % ILS (increase in lifespan)” value turned out to be 87%. In addition, the “% ILS” value with L1210 Tumor (30.63 mg/kg q3 hr × 8) was determined as 30%; in the series with L1210 Tumor (50 mg/kg qid × 5), 36%; in the series on L1210 Tumor (61.25 mg/kg q3 hr × 8), 0%; with L1210 Tumor (100 mg/kg qid × 5) it was 45%; in series [2] (30.63 mg/kg q3 hr × 8), 75%; in series [2] (50 mg/kg qid × 5), 157%. The entries for the “% ILS” value in series [2] (61.25 mg/kg q3 hr × 6) and in series [2] (100 mg/kg qid × 5) were 121% and 0%, respectively. The Survivors is reported as 0/3 in the series on L1210 Tumor (30.63 mg/kg q3 hr × 8); 0/3 in the series with L1210 Tumor (50 mg/kg qid × 5); 0/3 in the series with L1210 Tumor (61.25 mg/kg q3 hr × 8); 0/3 in the series on L1210 Tumor (100 mg/kg qid × 5); 1/3 in series [2] (30.63 mg/kg q3 hr × 8); 2/3 in series [2] (50 mg/kg qid × 5). Also, the Survivors is 2/3 in series [2] (61.25 mg/kg q3 hr × 6) and 0/3 in series [2] (100 mg/kg qid × 5). The “ID 90 (90% Inhibition)” value with ADJ/PC6A Tumor is reported as 25 mg/kg. In the series with ADJ/PC6A Tumor, the LD50 worked out at 135 mg/kg.

`CCOC(=O)c1c[nH]c(=O)[nH]c1=O` [5-carbethoxyuracil Class IA]: in series [1], the “# of cures” value came to 0, the “Dose of Best % ILS” value is recorded as 200 mg/kg, the “Toxic Level” value amounted to 200 mg/kg and the “Best % ILS (increase in lifespan)” value is on record as 56%. In addition, in the series on ADJ/PC6A Tumor, the “ID 90 (90% Inhibition)” value is listed as 250 mg/kg and the LD50 came to 670 mg/kg.

For `O=c1[nH]cc(CO)c(=O)[nH]1` [5-hydroxymethyluracil Class IA], in series [1], the “# of cures” value worked out at 2, the “Dose of Best % ILS” value stood at 100 mg/kg, the “Toxic Level” value is reported as 200 mg/kg and the “Best % ILS (increase in lifespan)” value turned out to be 98%. In the series with ADJ/PC6A Tumor, the “ID 90 (90% Inhibition)” value was 42 mg/kg and the LD50 amounted to 40 mg/kg.

For the molecule `O=c1cc(Cl)[nH]c(=O)[nH]1` [6-chlorouracil Class IA], in series [1], the “# of cures” value is reported as 3, the “Dose of Best % ILS” value was 200 mg/kg, the “Toxic Level” value is more than 200 mg/kg and the “Best % ILS (increase in lifespan)” value was found to be 88%. Further, in the series on ADJ/PC6A Tumor, the “ID 90 (90% Inhibition)” value is 190 mg/kg and the median lethal dose (LD50) was found to be 200 mg/kg.

Take `CC#N.CC#N.[Cl][Pt][Cl]` [Pt(CH3 CN)2 Cl2, reference compound]: in series [1], the “# of cures” value is on record as 1, the “Dose of Best % ILS” value worked out at 25 mg/kg, the “Toxic Level” value came out at 50 mg/kg and the “Best % ILS (increase in lifespan)” value worked out at 83%. Moreover, the gross hepatic damage entry in series [1] (in words) is given as “exceptions”.

Usually LD50 stands for the dose expected to kill half of the subjects tested. High values mean a less toxic substance, low ones a more toxic substance.
